In patent US20170334899A1, “AMINO-SUBSTITUTED ISOTHIAZOLES” (Bayer Pharma Aktiengesellschaft, priority 2014, published 2017):

These compounds were tested on human cervical tumor cell line HeLa (ATCC CCL-2) (assay: SAC-Formation - Paclitaxel-Induced Assay). Details: Homo sapiens, HeLa, 24 h, HeLa cells, paclitaxel 0.05 μM, test range 0.005 μM-20 μM, read-out: IC50 [mol/l] SAC-Formation - Paclitaxel-Induced Assay.
Type: cell-based
In short: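 Read-out is high-content imaging of anti-phospho-H3 Ser10 (mitosis) and Hoechst 33342 (DNA, cell number), with decreased mitotic fraction marking checkpoint breakthrough. Compounds (0.005–20 μM) and 0.05 μM paclitaxel co-added to overnight-plated HeLa for 24 h at 37° C; four-parameter Hill fit.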

Going from `Cc1nsc(Nc2cnc3ccccc3n2)c1C(=O)Nc1ccc(F)c(C(N)=O)c1` [Example 202, N-(3-carbamoyl-4-fluorophenyl)-3-methyl-5-(quinoxalin-2-ylamino)-1,2-thiazole-4-carboxamide] to `CNC(=O)c1ccc(NC(=O)c2c(C)nsc2Nc2cnc3ccccc3n2)cc1F` [Example 207, N-[3-fluoro-4-(methylcarbamoyl)phenyl]-3-methyl-5-(quinoxalin-2-ylamino)-1,2-thiazole-4-carboxamide], the IC50 falls from 0.13 µM to 0.076 µM (1.7-fold).

Going from `Cc1nsc(Nc2ccc(C#N)cn2)c1C(=O)Nc1ccc(F)c(C(N)=O)c1` [Example 203, N-(3-carbamoyl-4-fluorophenyl)-5-[(5-cyanopyridin-2-yl)amino]-3-methyl-1,2-thiazole-4-carboxamide] to `CNC(=O)c1ccc(NC(=O)c2c(C)nsc2Nc2ccc(C#N)cn2)cc1F` [Example 208, 5-[(5-cyanopyridin-2-yl)amino]-N-[3-fluoro-4-(methylcarbamoyl)phenyl]-3-methyl-1,2-thiazole-4-carboxamide], the IC50 falls from 8.5 µM to 0.041 µM (210-fold). The second is the more potent here.

Compared with `Cc1nsc(Nc2cncc(C(F)(F)F)n2)c1C(=O)Nc1ccc(F)c(C(N)=O)c1` [Example 204, N-(3-carbamoyl-4-fluorophenyl)-3-methyl-5-{[6-(trifluoromethyl)pyrazin-2-yl]amino}-1,2-thiazole-4-carboxamide], `CC(=O)Nc1cc(NC(=O)c2c(C)nsc2Nc2cnc(C(F)(F)F)cn2)ccc1F` [Example 206, N-(3-acetamido-4-fluorophenyl)-3-methyl-5-{[5-(trifluoromethyl)pyrazin-2-yl]amino}-1,2-thiazole-4-carboxamide] is 6-fold lower in IC50: 0.45 µM for the first, 0.075 µM for the second.

Compared with `CC(=O)Nc1cc(NC(=O)c2c(C)nsc2Nc2cnccn2)ccc1F` [Example 205, N-(3-acetamido-4-fluorophenyl)-3-methyl-5-(pyrazin-2-ylamino)-1,2-thiazole-4-carboxamide], `CNS(=O)(=O)c1ccc(NC(=O)c2c(C)nsc2Nc2cc(C#N)ccn2)cc1` [Example 210, 5-[(4-cyanopyridin-2-yl)amino]-3-methyl-N-[4-(methylsulfamoyl)phenyl]-1,2-thiazole-4-carboxamide] is 2.6-fold lower in IC50: 20 µM for the first, 7.7 µM for the second.

Compared with `Cc1nsc(Nc2cncc(C(F)(F)F)n2)c1C(=O)Nc1ccc(OCCCN)nc1` [Example 209, N-[6-(3-aminopropoxy)pyridin-3-yl]-3-methyl-5-{[6-(trifluoromethyl)pyrazin-2-yl]amino}-1,2-thiazole-4-carboxamide], `CNS(=O)(=O)c1ccc(NC(=O)c2c(C)nsc2Nc2cncc(C(F)(F)F)n2)cc1` [Example 211, 3-methyl-N-[4-(methylsulfamoyl)phenyl]-5-{[6-(trifluoromethyl)pyrazin-2-yl]amino}-1,2-thiazole-4-carboxamide] is 49-fold lower in IC50: 2.3 µM for the first, 0.047 µM for the second. The second is the more potent here.

`CNS(=O)(=O)c1ccc(NC(=O)c2c(C)nsc2Nc2cnc(C(F)(F)F)cn2)cc1` [Example 212, 3-methyl-N-[4-(methylsulfamoyl)phenyl]-5-{[5-(trifluoromethyl)pyrazin-2-yl]amino}-1,2-thiazole-4-carboxamide] and `Cc1nsc(Nc2cnc(C(F)(F)F)cn2)c1C(=O)Nc1ccc(C(=O)NCCN2CCCC(F)C2)cc1` (centres unmarked) [Example 213, N-(4-{[2-(3-fluoropiperidin-1-yl)ethyl]carbamoyl}phenyl)-3-methyl-5-{[5-(trifluoromethyl)pyrazin-2-yl]amino}-1,2-thiazole-4-carboxamide] are within 1.5-fold of each other in IC50: 4.1 µM for the first, 2.9 µM for the second.

Compared with `Cc1nsc(Nc2cncc(C(F)(F)F)n2)c1C(=O)Nc1ccc(C(=O)NCCN2CCCC(F)(F)C2)cc1` [Example 214, N-(4-{[2-(3,3-difluoropiperidin-1-yl)ethyl]carbamoyl}phenyl)-3-methyl-5-{[6-(trifluoromethyl)pyrazin-2-yl]amino}-1,2-thiazole-4-carboxamide], `Cc1nsc(Nc2cnc(C(F)(F)F)cn2)c1C(=O)Nc1ccc(OCCNC(=O)OC(C)(C)C)c(F)c1` [Example 215, tert-butyl [2-(2-fluoro-4-{[(3-methyl-5-{[5-(trifluoromethyl)pyrazin-2-yl]amino}-1,2-thiazol-4-yl)carbonyl]amino}phenoxy)ethyl]carbamate] is 22-fold lower in IC50: 1.6 µM for the first, 0.072 µM for the second.
